Columns and labels:
[1] = tested on: CAKI-1; experiment: Antiproliferative activity against human CAKI-1 cells after 3 days by fluorescence assay; format: functional; settings: CAKI-1, 72 h
[2] = Antiproliferative activity against human RXF393 cells after 3 days by fluorescence assay; format: functional; settings: RXF 393, 72 h
[3] = tested on: SN12C; experiment: Antiproliferative activity against human SN12C cells after 3 days by fluorescence assay; format: functional; settings: 72 h
[4] = tested on: TK-10; experiment: Antiproliferative activity against human TK10 cells after 3 days by fluorescence assay; format: functional; settings: TK-10, 72 h
[5] = Antiproliferative activity against human UO31 cells after 3 days by fluorescence assay; format: functional; settings: UO-31, 72 h
[6] = Antiproliferative activity against human PC3 cells after 3 days by fluorescence assay; format: functional; settings: PC-3, 72 h
[7] = tested on: DU-145; experiment: (§1) Antiproliferative activity against human DU145 cells after 3 days by fluorescence assay; format: functional; settings: DU-145, 72 h
[8] = tested on: MCF7; experiment: Antiproliferative activity against human MCF7 cells after 3 days by fluorescence assay; format: functional; settings: MCF7, 72 h
[9] = tested on: MDA-MB-231; experiment: Antiproliferative activity against human MDA-MB-231 cells after 3 days by fluorescence assay; format: functional; settings: MDA-MB-231, 72 h
[10] = Antiproliferative activity against human Hs 578T cells after 3 days by fluorescence assay; format: functional; settings: 72 h
[11] = Antiproliferative activity against human BT549 cells after 3 days by fluorescence assay; format: functional; settings: BT-549, 72 h
[12] = tested on: T47D; experiment: Antiproliferative activity against human T47D cells after 3 days by fluorescence assay; format: functional; settings: 72 h
[13] = tested on: MDA-MB-468; experiment: Antiproliferative activity against human MDA-MB-468 cells after 3 days by fluorescence assay; format: functional; settings: MDA-MB-468, 72 h
[14] = target: Tubulin; experiment: Displacement of [3H]-colchicine from tubulin (unknown origin) after 10 mins by turbidimetrically; format: protein-complex assay, Homo sapiens
[15] = target: T1, Tubulin (Homo sapiens) (UniProt P68371+Q9H4B7+P0DPH7+P68366+Q13509+Q71U36+P04350+Q3ZCM7+P07437+P68363+Q9BQE3+Q6PEY2+Q13885+Q9BVA1+Q9BUF5); experiment: Displacement of [3H]-colchicine from tubulin (unknown origin) at 1 uM after 10 mins by turbidimetrically relative to control; format: protein-complex assay
[16] = target: T1, Tubulin (Homo sapiens); experiment: Displacement of [3H]-colchicine from tubulin (unknown origin) at 5 uM after 10 mins by turbidimetrically relative to control; format: protein-complex assay
[17] = target: T1, Tubulin (Homo sapiens); experiment: Displacement of [3H]-colchicine from tubulin (unknown origin) at 50 uM after 10 mins by turbidimetrically relative to control; format: protein-complex assay
[18] = tested on: DU-145; experiment: as §1; format: functional; settings: DU-145, 72 h; remark: listed apart in the source
[19] = tested on: CCRF-CEM; experiment: Antiproliferative activity against human CCRF-CEM cells after 3 days by fluorescence assay; format: functional; settings: 72 h
[20] = tested on: HL-60(TB); experiment: Antiproliferative activity against human HL-60(TB) cells after 3 days by fluorescence assay; format: functional; settings: HL-60, 72 h
[21] = tested on: K562; experiment: Antiproliferative activity against human K562 cells after 3 days by fluorescence assay; format: functional; settings: K562, 72 h
[22] = Antiproliferative activity against human MOLT4 cells after 3 days by fluorescence assay; format: functional; settings: MOLT-4, 72 h
[23] = Antiproliferative activity against human RPMI8226 cells after 3 days by fluorescence assay; format: functional; settings: RPMI-8226, 72 h
[24] = tested on: SR; experiment: Antiproliferative activity against human SR cells after 3 days by fluorescence assay; format: functional; settings: 72 h
[25] = tested on: A549; experiment: Antiproliferative activity against human A549 cells after 3 days by fluorescence assay; format: functional; settings: A549, 72 h
[26] = Antiproliferative activity against human EKVX cells after 3 days by fluorescence assay; format: functional; settings: 72 h
[27] = tested on: HOP-62; experiment: Antiproliferative activity against human HOP62 cells after 3 days by fluorescence assay; format: functional; settings: HOP-62, 72 h
[28] = Antiproliferative activity against human HOP92 cells after 3 days by fluorescence assay; format: functional; settings: HOP-92, 72 h
[29] = tested on: NCI-H226; experiment: Antiproliferative activity against human NCI-H226 cells after 3 days by fluorescence assay; format: functional; settings: NCI-H226, 72 h
[30] = tested on: NCI-H23; experiment: Antiproliferative activity against human NCI-H23 cells after 3 days by fluorescence assay; format: functional; settings: NCI-H23, 72 h
[31] = tested on: NCI-H322M; experiment: Antiproliferative activity against human NCI-H322M cells after 3 days by fluorescence assay; format: functional; settings: 72 h
[32] = tested on: NCI-H460; experiment: Antiproliferative activity against human NCI-H460 cells after 3 days by fluorescence assay; format: functional; settings: NCI-H460, 72 h
[33] = tested on: NCI-H522; experiment: Antiproliferative activity against human NCI-H522 cells after 3 days by fluorescence assay; format: functional; settings: NCI-H522, 72 h
[34] = Antiproliferative activity against human COLO205 cells after 3 days by fluorescence assay; format: functional; settings: COLO 205, 72 h
[35] = Antiproliferative activity against human HCC2998 cells after 3 days by fluorescence assay; format: functional; settings: HCC 2998, 72 h
[36] = Antiproliferative activity against human HCT116 cells after 3 days by fluorescence assay; format: functional; settings: HCT-116, 72 h
[37] = Antiproliferative activity against human HCT15 cells after 3 days by fluorescence assay; format: functional; settings: HCT-15, 72 h
[38] = tested on: HT-29; experiment: Antiproliferative activity against human HT-29 cells after 3 days by fluorescence assay; format: functional; settings: HT-29, 72 h
[39] = tested on: KM12; experiment: Antiproliferative activity against human KM12 cells after 3 days by fluorescence assay; format: functional; settings: KM12, 72 h
[40] = tested on: SW-620; experiment: Antiproliferative activity against human SW620 cells after 3 days by fluorescence assay; format: functional; settings: SW-620, 72 h
[41] = tested on: SF-268; experiment: Antiproliferative activity against human SF268 cells after 3 days by fluorescence assay; format: functional; settings: SF-268, 72 h
[42] = Antiproliferative activity against human SF295 cells after 3 days by fluorescence assay; format: functional; settings: SF-295, 72 h
[43] = Antiproliferative activity against human SF539 cells after 3 days by fluorescence assay; format: functional; settings: SF-539, 72 h
[44] = tested on: SNB-19; experiment: Antiproliferative activity against human SNB19 cells after 3 days by fluorescence assay; format: functional; settings: SNB-19, 72 h
[45] = tested on: SNB-75; experiment: Antiproliferative activity against human SNB75 cells after 3 days by fluorescence assay; format: functional; settings: SNB-75, 72 h
[46] = tested on: U-251; experiment: Antiproliferative activity against human U251 cells after 3 days by fluorescence assay; format: functional; settings: U-251, 72 h
[47] = Antiproliferative activity against human LOXIMVI cells after 3 days by fluorescence assay; format: functional; settings: LOX IMVI, 72 h
[48] = tested on: Malme-3M; experiment: Antiproliferative activity against human MALME-3M cells after 3 days by fluorescence assay; format: functional; settings: 72 h
[49] = tested on: M14; experiment: Antiproliferative activity against human M14 cells after 3 days by fluorescence assay; format: functional; settings: M14, 72 h
[50] = tested on: MDA-MB-435; experiment: Antiproliferative activity against human MDA-MB-435 cells after 3 days by fluorescence assay; format: functional; settings: MDA-MB-435, 72 h
[51] = tested on: SK-MEL-2; experiment: Antiproliferative activity against human SK-MEL-2 cells after 3 days by fluorescence assay; format: functional; settings: SK-MEL-2, 72 h
[52] = tested on: SK-MEL-28; experiment: Antiproliferative activity against human SK-MEL-28 cells after 3 days by fluorescence assay; format: functional; settings: SK-MEL-28, 72 h
[53] = tested on: SK-MEL-5; experiment: Antiproliferative activity against human SK-MEL-5 cells after 3 days by fluorescence assay; format: functional; settings: SK-MEL-5, 72 h
[54] = Antiproliferative activity against human UACC257 cells after 3 days by fluorescence assay; format: functional; settings: UACC-257, 72 h
[55] = Antiproliferative activity against human UACC62 cells after 3 days by fluorescence assay; format: functional; settings: UACC-62, 72 h
[56] = tested on: IGROV-1; experiment: Antiproliferative activity against human IGROV1 cells after 3 days by fluorescence assay; format: functional; settings: IGROV-1, 72 h
[57] = Antiproliferative activity against human OVCAR3 cells after 3 days by fluorescence assay; format: functional; settings: OVCAR-3, 72 h
[58] = Antiproliferative activity against human OVCAR4 cells after 3 days by fluorescence assay; format: functional; settings: OVCAR-4, 72 h
[59] = Antiproliferative activity against human OVCAR5 cells after 3 days by fluorescence assay; format: functional; settings: OVCAR-5, 72 h
[60] = Antiproliferative activity against human OVCAR8 cells after 3 days by fluorescence assay; format: functional; settings: OVCAR-8, 72 h
[61] = Antiproliferative activity against human NCI-ADR-RES cells after 3 days by fluorescence assay; format: functional; settings: 72 h
[62] = Antiproliferative activity against human SKOV3 cells after 3 days by fluorescence assay; format: functional; settings: SK-OV-3, 72 h
[63] = tested on: 786-0; experiment: Antiproliferative activity against human 786-0 cells after 3 days by fluorescence assay; format: functional; settings: 786-0, 72 h
[64] = tested on: A498; experiment: Antiproliferative activity against human A498 cells after 3 days by fluorescence assay; format: functional; settings: A498, 72 h
[65] = tested on: ACHN; experiment: Antiproliferative activity against human ACHN cells after 3 days by fluorescence assay; format: functional; settings: 72 h

COc1cccc(NC(=O)N2CCC(c3nc(-c4ccc(C)cc4)no3)CC2)c1
GI50 [1]: 5.75 µM
GI50 [2]: 4.07 µM
GI50 [3]: 11 µM
GI50 [4]: 9.55 µM
GI50 [5]: 6.46 µM
GI50 [6]: 4.37 µM
GI50 [7]: 3.63 µM
GI50 [8]: 3.24 µM
GI50 [9]: 18.2 µM
GI50 [10]: 5.5 µM
GI50 [11]: 13.8 µM
GI50 [12]: 5.5 µM
GI50 [13]: 2.45 µM
IC50 [14]: 3 µM
inhibition [15]: 5.7%
inhibition [16]: 8.2%
inhibition [17]: 19%
GI50 [18]: 4.5 µM
GI50 [19]: 3.55 µM
GI50 [20]: 0.603 µM
GI50 [21]: 0.355 µM
GI50 [22]: 5.5 µM
GI50 [23]: 3.31 µM
GI50 [24]: 0.417 µM
GI50 [25]: 5.13 µM
GI50 [26]: 6.76 µM
GI50 [27]: 4.68 µM
GI50 [28]: 3.31 µM
GI50 [29]: 9.12 µM
GI50 [30]: 6.03 µM
GI50 [31]: 11.7 µM
GI50 [32]: 3.47 µM
GI50 [33]: 4.07 µM
GI50 [34]: 3.8 µM
GI50 [35]: 5.01 µM
GI50 [36]: 4.79 µM
GI50 [37]: 4.9 µM
GI50 [38]: 3.31 µM
GI50 [39]: 3.31 µM
GI50 [40]: 3.98 µM
GI50 [41]: 7.24 µM
GI50 [42]: 3.09 µM
GI50 [43]: 3.47 µM
GI50 [44]: 8.71 µM
GI50 [45]: 7.94 µM
GI50 [46]: 4.17 µM
GI50 [47]: 5.5 µM
GI50 [48]: 4.17 µM
GI50 [49]: 3.24 µM
GI50 [50]: 0.537 µM
GI50 [51]: 11 µM
GI50 [52]: 13.2 µM
GI50 [53]: 3.39 µM
GI50 [54]: 16.6 µM
GI50 [55]: 6.61 µM
GI50 [56]: 9.12 µM
GI50 [57]: 2.63 µM
GI50 [58]: 7.24 µM
GI50 [59]: 13.2 µM
GI50 [60]: 7.08 µM
GI50 [61]: 2.75 µM
GI50 [62]: 4.47 µM
GI50 [63]: 6.03 µM
GI50 [64]: 5.01 µM
GI50 [65]: 5.89 µM

From ChEMBL document CHEMBL3352299, “Antiproliferative 4-(1,2,4-oxadiazol-5-yl)piperidine-1-carboxamides, a new tubulin inhibitor chemotype” (Bioorg Med Chem Lett, 2014)
